We go through 2 substances from US20260263617A1, “DARATUMUMAB DRUG CONJUGATES AND PREPARATION THEREOF” (ZYDUS LIFESCIENCES LIMITED, priority 2023, published 2026).

Like-named read-outs stand apart in the source and are kept apart here.

Data set [1] concerns Daudi (ATCC CCL-213, B Lymphoblast) cells. The data set can be described thus: In-vitro cytotoxicity assay using Daudi cells (alamar blue). It is filed as cell-based. Here is the method: Daudi (ATCC CCL-213, B Lymphoblast) cells were seeded on a 96 well black clear bottom plate (Costar 3603). The cell line was chosen as it is known to express the CD38 receptor. The cells were treated with different concentrations of daratumumab-MMAE conjugation and Darzalex, incubated in CO2 incubator for 2 hours. After incubation the excess or unbound Daratumumab-MMAE was removed, fresh media was added and incubated for 4 days in 5% CO2 at 37° C. At the end of incubation, alamar blue dye (invitrogen, DAL-1100) was added to the cells and incubated for 5 hours in CO2 incubator.
In general terms: Alamar Blue is a resazurin reagent that responds to reducing activity.

Data set [2] concerns Daudi Burkitt lymphoma xenograft. In words: Efficacy in Burkitt lymphoma xenograft disease model in SCID mice. It is filed as in vivo. To be noted: 5 mg/kg, I.V. route, single administration; dosed at mean tumor volume approximately 20-25 mm3; FIG. 4. As for the experimental part:
In present study, the therapeutic potential of novel Daratumumab-ADC has been evaluated in comparison to Daratumumab antibody only. Specifically to induce Burkitt lymphoma xenograft, Immunodeficient SCID mice were injected with Daudi cells (1 million cells/animal/200 μL volume, In 1:1 ratio of cell suspension & matrigel) in right flank region of animals. […] Here, in this study, Daratumumab-ADC & Daratumumab were compared head to head at a dose level of 5 mg/kg (I.V. route, Single administration).

Turning to “Daratumumab: immunoglobulin G1 kappa (IgG1κ) human monoclonal antibody against CD38 antigen [reference compound]”, the “in vitro activity (cytotoxicity, viable cells by alamar blue fluorescence)” value in data set [1] was “does not show activity without effector functions”. Further, the “effect on tumor progression / tumor burden” value in data set [2] is “able to delay the tumor progression in comparison to placebo control group but not able to regress the tumor burden”.
Regarding “daratumumab-MMAE conjugate: daratumumab as an antibody, mc-vc-PABC as a linker and MMAE as a toxin or drug or payload; average DAR about 4”, the “in vitro activity (cytotoxicity, viable cells by alamar blue fluorescence)” value in data set [1] (Daudi cells expressing CD38, 2 hours treatment, unbound removed, 4 days incubation, no effector cells) is “shows good in vitro activity without the requirement of effector cell mediated killing”. For the same substance, in data set [1] (Daudi cells, FIG. 3), the “relative in vitro activity compared with Darzalex” value is listed as “better than Darzalex”. The “effect on tumor progression / tumor burden” value in data set [2] is reported as “able to regress the tumor burden”.
